Test results taken from ChEMBL document CHEMBL3526094, “Methadone N-demethylation by the common CYP2B6 allelic variant CYP2B6.6” (Drug Metab Dispos, 2013).

Columns and labels:
Format in all cases: ADME
Conditions in all cases: human, recombinant enzyme
[1] = Drug metabolism assessed as recombinant CYP2B6.1 (unknown origin) expressed in insect cell microsomes-mediated R-2-ethyl-1,5-dimethyl-3,3-diphenylpyrrolidine formation at 0.25 to 2 uM after 10 mins high-pressure liquid chromatography analysis
[2] = Drug metabolism assessed as recombinant CYP2B6.1 (unknown origin) expressed in insect cell microsomes-mediated S-2-ethyl-1,5-dimethyl-3,3-diphenylpyrrolidine formation at 0.25 to 2 uM after 10 mins high-pressure liquid chromatography analysis
[3] = Drug metabolism assessed as recombinant CYP2B6.6 (unknown origin) expressed in insect cell microsomes-mediated R-2-ethyl-1,5-dimethyl-3,3-diphenylpyrrolidine formation at 0.25 to 2 uM after 10 mins high-pressure liquid chromatography analysis
[4] = Drug metabolism assessed as recombinant CYP2B6.6 (unknown origin) expressed in insect cell microsomes-mediated S-2-ethyl-1,5-dimethyl-3,3-diphenylpyrrolidine formation at 0.25 to 2 uM after 10 mins high-pressure liquid chromatography analysis

Compound | Ks [1] | Ks [2] | Ks [3] | Ks [4]
CCC(=O)C(CC(C)N(C)C)(c1ccccc1)c1ccccc1 (stereo in doubt) [METHADONE] | 75 µM | 25 µM | 97 µM | 40 µM
CCC(=O)C(CC(C)N(C)C)(c1ccccc1)c1ccccc1 (racemic) [METHADONE] | 40 µM | 13 µM | 57 µM | 20 µM
